Assay [1] has as its system Human immunodeficiency virus 1. As to the kind of experiment: Antiviral activity against Human immunodeficiency virus 1 3B infected in CEM-SS cells. It is filed as functional, organism-based.
The subject of another assay is CEM-SS. As to the kind of experiment: Cytotoxicity against Human immunodeficiency virus 1 3B infected human CEM-SS cells. It is filed as functional. Conditions: read-out: TC50 (the source's name).

Peptide text beside a SMILES is read from it. Some results are limits rather than exact numbers.

Compound `CC[C@H](C)[C@H](NC(=O)[C@H](CCCNC(=N)N)NC(=O)[C@H](CCCCN)NC(=O)[C@H](Cc1ccccc1)NC(=O)CN)C(=O)N[C@H](C(=O)N[C@@H](CCC(N)=O)C(=O)N[C@@H](CCCNC(=N)N)C(=O)N[C@@H](C(=O)N[C@@H](CCCCN)C(=O)N[C@@H](CC(=O)O)C(=O)N[C@@H](Cc1ccccc1)C(=O)N[C@@H](CC(C)C)C(=O)N[C@@H](CCCNC(=N)N)C(=O)N[C@@H](CC(N)=O)C(=O)N[C@@H](CC(C)C)C(=O)N[C@H](C(=O)O)C(C)C)[C@@H](C)CC)C(C)C` displayed an EC50 in assay [1] greater than 47.5 µM. For the same compound, the CC50 in the assay on CEM-SS came to 22.7 µM. In the same order, the values of `CC[C@H](C)[C@H](NC(=O)[C@H](CCCNC(=N)N)NC(=O)[C@H](CCCCN)NC(=O)[C@H](Cc1ccccc1)NC(=O)CN)C(=O)N[C@H](C(=O)N[C@@H](CCC(N)=O)C(=O)N[C@@H](CCCNC(=N)N)C(=O)N[C@@H](C(=O)N[C@@H](CCCCN)C(=O)N[C@@H](CC(=O)O)C(=O)N[C@@H](Cc1ccccc1)C(=O)N[C@H](CC(C)C)C(=O)N[C@@H](CCCNC(=N)N)C(=O)N[C@@H](CC(N)=O)C(=O)N[C@@H](CC(C)C)C(=O)N[C@H](C(=O)O)C(C)C)[C@@H](C)CC)C(C)C` are greater than 47.5 µM and greater than 47.5 µM. On to `CC[C@H](C)[C@H](NC(=O)CN)C(=O)N[C@@H](CCCCN)C(=O)N[C@@H](CCC(=O)O)C(=O)N[C@@H](C(=O)N[C@@H](CCCCN)C(=O)N[C@@H](CCCNC(=N)N)C(=O)N[C@H](C(=O)N[C@H](C(=O)N[C@@H](CCC(N)=O)C(=O)N[C@@H](CCCNC(=N)N)C(=O)N[C@H](C(=O)N[C@@H](CCCCN)C(=O)N[C@@H](CC(=O)O)C(=O)N[C@@H](Cc1ccccc1)C(=O)N[C@@H](CC(C)C)C(=O)N[C@@H](CCCNC(=N)N)C(=O)N[C@@H](CC(N)=O)C(=O)N[C@@H](CC(C)C)C(=O)N[C@H](C(=O)O)C(C)C)[C@@H](C)CC)C(C)C)[C@@H](C)CC)c1ccccc1`, for which the concentration for a half-maximal effect (EC50) in assay [1] was greater than 40.6 µM. In the assay with CEM-SS, the CC50 is 7.3 µM.

As for `CC[C@H](C)[C@H](NC(=O)CN)C(=O)N[C@@H](CCCCN)C(=O)N[C@@H](CCC(=O)O)C(=O)N[C@@H](Cc1ccccc1)C(=O)N[C@@H](CCCCN)C(=O)N[C@@H](CCCNC(=N)N)C(=O)N[C@@H](CCC(=O)O)C(=O)N[C@@H](Cc1ccccc1)C(=O)N[C@@H](CCC(N)=O)C(=O)N[C@@H](CCCNC(=N)N)C(=O)N[C@H](C(=O)N[C@@H](CCCCN)C(=O)N[C@@H](CC(=O)O)C(=O)N[C@@H](Cc1ccccc1)C(=O)N[C@@H](CC(C)C)C(=O)N[C@@H](CCCNC(=N)N)C(=O)N[C@@H](CC(N)=O)C(=O)N[C@@H](CC(C)C)C(=O)N[C@H](C(=O)O)C(C)C)[C@@H](C)CC` (H-GIKEFKREFQRIKDFLRNLV-OH), the CC50 in the assay on CEM-SS stood at 9.9 µM. The same measure, in the same setting: with `CC[C@H](C)[C@H](NC(=O)CN)C(=O)N[C@@H](CCCCN)C(=O)N[C@@H](CCC(=O)O)C(=O)N[C@@H](Cc1c[nH]c2ccccc12)C(=O)N[C@@H](CCCCN)C(=O)N[C@@H](CCCNC(=N)N)C(=O)N[C@H](C(=O)N[C@H](C(=O)N[C@@H](CCC(N)=O)C(=O)N[C@@H](CCCNC(=N)N)C(=O)N[C@H](C(=O)N[C@@H](CCCCN)C(=O)N[C@@H](CC(=O)O)C(=O)N[C@@H](Cc1ccccc1)C(=O)N[C@@H](CC(C)C)C(=O)N[C@@H](CCCNC(=N)N)C(=O)N[C@@H](CC(N)=O)C(=O)N[C@@H](CC(C)C)C(=O)N[C@H](C(=O)O)C(C)C)[C@@H](C)CC)C(C)C)[C@@H](C)CC` (H-GIKEWKRIVQRIKDFLRNLV-OH) the figure was 23.6 µM; with `CC[C@H](C)[C@H](NC(=O)CN)C(=O)N[C@@H](CCCCN)C(=O)N[C@@H](CCC(N)=O)C(=O)N[C@@H](Cc1ccccc1)C(=O)N[C@@H](CCCCN)C(=O)N[C@@H](CCCNC(=N)N)C(=O)N[C@H](C(=O)N[C@H](C(=O)N[C@@H](CCC(N)=O)C(=O)N[C@@H](CCCNC(=N)N)C(=O)N[C@H](C(=O)N[C@@H](CCCCN)C(=O)N[C@@H](CC(=O)O)C(=O)N[C@@H](Cc1ccccc1)C(=O)N[C@@H](CC(C)C)C(=O)N[C@@H](CCCNC(=N)N)C(=O)N[C@@H](CC(N)=O)C(=O)N[C@@H](CC(C)C)C(=O)N[C@H](C(=O)O)C(C)C)[C@@H](C)CC)C(C)C)[C@@H](C)CC` (H-GIKQFKRIVQRIKDFLRNLV-OH), 13.7 µM.

In the case of `CC(C)C[C@H](NC(=O)[C@H](CCCCN)NC(=O)[C@H](CCCCN)NC(=O)[C@H](Cc1ccccc1)NC(=O)[C@H](CCCCN)NC(=O)[C@H](CCCCN)NC(=O)[C@H](CCCNC(=N)N)NC(=O)[C@H](Cc1ccccc1)NC(=O)[C@H](CCCNC(=N)N)NC(=O)[C@H](CCCCN)NC(=O)[C@H](Cc1ccccc1)NC(=O)[C@H](CCCNC(=N)N)NC(=O)CN)C(=O)N[C@@H](Cc1ccccc1)C(=O)N[C@@H](CCCCN)C(=O)O` (H-GRFKRFRKKFKKLFK-OH), in assay [1], the EC50 was greater than 49.6 µM. In addition, the CC50 in the assay on CEM-SS was greater than 49.6 µM.

Regarding `CC[C@H](C)[C@H](NC(=O)[C@H](CCCCN)NC(=O)[C@H](CCCCN)NC(=O)[C@H](Cc1ccccc1)NC(=O)[C@H](CC(C)C)NC(=O)[C@H](CCCCN)NC(=O)[C@H](CCCCN)NC(=O)[C@H](CC(C)C)NC(=O)[C@H](CCCCN)NC(=O)[C@H](CCCCN)NC(=O)[C@H](CCCNC(=N)N)NC(=O)[C@@H](NC(=O)[C@H](CCCNC(=N)N)NC(=O)[C@H](CCCCN)NC(=O)[C@H](Cc1ccccc1)NC(=O)[C@H](CCCNC(=N)N)NC(=O)CN)[C@@H](C)CC)C(=O)N[C@@H](CO)C(=O)O` (H-GRFKRIRKKLKKLFKKIS-OH) [listing 1 of 2 here], in assay [1], the EC50 is greater than 44 µM. Turning to `CC[C@H](C)[C@H](NC(=O)[C@H](CCCCN)NC(=O)[C@H](CCCCN)NC(=O)[C@H](Cc1ccccc1)NC(=O)[C@H](CC(C)C)NC(=O)[C@H](CCCCN)NC(=O)[C@H](CCCCN)NC(=O)[C@H](CC(C)C)NC(=O)[C@H](CCCCN)NC(=O)[C@H](CCCCN)NC(=O)[C@H](CCCNC(=N)N)NC(=O)[C@@H](NC(=O)[C@H](CCCNC(=N)N)NC(=O)[C@H](CCCCN)NC(=O)[C@H](Cc1ccccc1)NC(=O)[C@H](CCCNC(=N)N)NC(=O)CN)[C@@H](C)CC)C(=O)N[C@@H](CO)C(=O)O` (H-GRFKRIRKKLKKLFKKIS-OH) [listing 2 of 2 here], in the assay on CEM-SS, the CC50 was found to be 2.79 µM.

Compound `CC[C@H](C)[C@H](NC(=O)[C@H](CCCNC(=N)N)NC(=O)[C@H](CCC(N)=O)NC(=O)[C@@H](NC(=O)[C@@H](NC(=O)[C@H](CCCNC(=N)N)NC(=O)[C@@H](N)CCCCN)[C@@H](C)CC)C(C)C)C(=O)N[C@@H](CCCCN)C(=O)N[C@@H](CC(=O)O)C(=O)N[C@@H](Cc1ccccc1)C(=O)N[C@@H](CC(C)C)C(=O)N[C@@H](CCCNC(=N)N)C(=O)O` (H-KRIVQRIKDFLR-OH) yielded an EC50 in assay [1] greater than 63.5 µM. In the assay with CEM-SS, the CC50 is greater than 63.5 µM. With `CC[C@H](C)[C@H](NC(=O)[C@H](CCCNC(=N)N)NC(=O)[C@H](CCC(N)=O)NC(=O)[C@@H](NC(=O)[C@@H](NC(=O)[C@H](CCCNC(=N)N)NC(=O)[C@@H](N)CCCCN)[C@@H](C)CC)C(C)C)C(=O)N[C@@H](CCCCN)C(=O)N[C@@H](CC(=O)O)C(=O)N[C@@H](Cc1ccccc1)C(=O)N[C@@H](CC(C)C)C(=O)N[C@@H](CCCNC(=N)N)C(=O)N[C@@H](CC(N)=O)C(=O)N[C@@H](CC(C)C)C(=O)N[C@H](C(=O)N1CCC[C@H]1C(=O)N[C@@H](CCCNC(=N)N)C(=O)N[C@H](C(=O)N[C@@H](CCC(=O)O)C(=O)N[C@@H](CO)C(=O)O)[C@@H](C)O)C(C)C` (H-KRIVQRIKDFLRNLVPRTES-OH), the EC50 in assay [1] was greater than 40.5 µM. Also, the CC50 in the assay with CEM-SS is greater than 40.5 µM.

As a reminder, the EC50 is the concentration giving half of the maximal effect. A high value points to a need for much substance.
